Experimental data as given in US20160370380A1, “COMBINATORIAL ANTIBODY DIAGNOSTIC” (PharmaSeq, Inc., priority 2015, published 2016).

Columns and labels:
anti-HA antibody [1] = experiment: anti-HA antibody binding assay on MTP-bound peptides (fluorescence, SAPE detection)
anti-HA antibody [2] = experiment: HA competitive binding: free peptide in solution competes with […] on MTPs for the anti-HA antibody; settings: for competitive activity against YPYDVPDYA peptide on MTPs for anti-HA antibody: free peptide with spacer GG in solution, FIG. 3

Substance	assay signal (binding to anti-HA antibody) in screen of random 4-aa peptide library (anti-HA antibody [1]; 5,307 random 4-aa peptides on MTPs, 10 ug/mL biotinylated anti-HA monoclonal antibody, fluorescence at 532 nm)	competitive activity against YPYDVPDYA peptide on MTPs for anti-HA antibody (anti-HA antibody [2])	binding affinity to the anti-HA antibody (conclusion from competition and screen) (anti-HA antibody [2]; taken together from results of FIG. 3 and screen)	recognition by / affinity to anti-HA antibody in HA peptide assay (anti-HA antibody [1]; […], QC control group vial #9, data not shown)
HKRK	very low binding	no competitive activity		
YHYY		competed well	high binding affinity	
YPYDVPDYA		reduced assay signal		specifically recognized by anti-HA antibody
